{"source": "paper PMC11843658", "about": "(Journal of Enzyme Inhibition and Medicinal Chemistry, 2025)", "origin": "cited, not measured here", "target": "LSD1 (Homo sapiens, UniProt O60341)", "set-up": "purchased Cayman Chemical (Ann Arbor, MI)", "settings": "cited from earlier work", "data": [{"smiles": "CC/C(=C\\c1ccccc1)[C@@H]1C[C@H]1NC1CC2(C1)CN(CCO)C2", "note": "[Compound 5]", "values": [{"measurement": "mode of LSD1 inhibition", "value": "covalently inhibits LSD1"}]}]}
